Patent publication US20160184274A1, “Methods for inhibiting mesenchymal phenotype after epithelial-to-mesenchymal transition” (Fibrostatin, S.L., priority 2014, published 2016)
Entries after “also recorded” stand apart in the source; their conditions may differ.

How the values were obtained:
[1] = target: T1, multimeric extracellular GPBP (Homo sapiens, UniProt Q9Y5P4); experiment: In vitro phosphorylation assay with multimeric extracellular GPBP; type: biochemical; conditions: T12 50 μM; autophosphorylation, γ[32P]ATP; FIG. 2
T1 construct: made in house; host or cells: Sf9 insect cells (baculovirus), purified from culture medium
T1 sequence (Q9Y5P4 1-624): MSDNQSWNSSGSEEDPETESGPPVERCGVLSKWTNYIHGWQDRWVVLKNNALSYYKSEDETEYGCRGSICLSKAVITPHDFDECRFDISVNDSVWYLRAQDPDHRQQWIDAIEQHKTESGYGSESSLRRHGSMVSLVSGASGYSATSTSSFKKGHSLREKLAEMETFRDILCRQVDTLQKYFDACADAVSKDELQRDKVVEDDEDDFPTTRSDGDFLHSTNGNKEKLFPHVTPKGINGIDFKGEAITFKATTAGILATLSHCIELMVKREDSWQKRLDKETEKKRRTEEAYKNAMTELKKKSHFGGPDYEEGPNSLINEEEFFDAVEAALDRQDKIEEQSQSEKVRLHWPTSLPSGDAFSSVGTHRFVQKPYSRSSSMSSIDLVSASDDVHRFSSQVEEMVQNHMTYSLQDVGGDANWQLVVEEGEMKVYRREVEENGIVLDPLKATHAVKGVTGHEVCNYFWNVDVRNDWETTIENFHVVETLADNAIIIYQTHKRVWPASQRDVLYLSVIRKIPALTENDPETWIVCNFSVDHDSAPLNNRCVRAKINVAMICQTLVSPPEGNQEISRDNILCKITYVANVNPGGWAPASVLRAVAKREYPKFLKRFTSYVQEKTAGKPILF
Method: FIG. 2. […] Multimeric extracellular and trimeric intracellular GPBP were purified by affinity chromatography and subsequent gel filtration chromatography, and used for in vitro phosphorylation assays in absence (−) or presence (+) of T12 (50 μM). Reactions were subjected to SDS-PAGE, Western blot onto PVDF membrane and autoradiography, and further protein detected with anti-FLAG primary antibodies. Autoradiography and anti-FLAG® bands were quantified with WCIF IMAGEJ® software, and the normalized kinase activity estimated. Shown are normalized kinase activities. […] Samples were analyzed in triplicate and the data represents the Mean (±SEM) of three independent assays.
FLAG®-tagged GPBP was expressed using Bac-to-Bac® Baculovirus Expression System. […] Finally, purified protein was quantified with Bio-Rad Protein Assay and stored at −20° C. […]
Typically, about 270 ng of purified FLAG®-GPBP protein, either extracellular multimer or intracellular trimer, were incubated in presence or absence of T12 […] in a kinase assay buffer containing 25 mM disodium β-glycerophosphate, 8 mM MgCl2, 0.5 mM EDTA, 0.5 mM EGTA, 1 mM DTT, 5 mM MnCl2 during 10 min at 37° C. […] Then reactions were stopped with SDS-PAGE loading buffer and heat (95° C., 3 min) and analyzed by SDS-PAGE, electro-transference to PVDF membrane (Merck Millipore) and autoradiography. […]

[2] = tested on: A549 tumors with epithelial phenotype; conditions: T12 20 mg/kg/day in drinking water, alone or with doxorubicin 4 mg/kg/week i.p.; previously reported, WO/2014/006020; cited from earlier work

normalized kinase activity of GPBP [1]: targeted extracellular GPBP multimer
SMILES: COc1ccc(-c2ccc(-c3cccc(C)c3)c(C)c2)c(CCC(=O)O)c1 [T12, 3-[4″-methoxy-3,2′-dimethyl-(1,1′;4′,1″)terphenyl-2″-yl] propionic acid]
tumor growth (relative tumor volume) [2]: required the synergistic action of doxorubicin to efficiently inhibit tumor growth; also recorded: synergistic with doxorubicin
